What all share (experiment): Mitomycin C growth arrest of fibroblasts (weekly cell counting, colony inspection)
The subject of assay [1] is rat fibroblast cell line (CRL 1213). Type of assay: cell-based. The note with it: MMC treatment for 5 h.
In assay [2] the test system is FGF1-transfected rat fibroblast cell line (1175/CRL 1213). It is filed as cell-based.
Assay [3] relates to primary human fibroblasts (EDX1). The note with it: MMC treatment for 5 h.
Assay [4] concerns human telomerase immortalized fibroblast line (MDX12). The settings on record: MMC treatment for 5 h.

Each structure is given as a SMILES string.

Take `CO[C@@]12[C@H](COC(N)=O)C3=C(C(=O)C(C)=C(N)C3=O)N1C[C@@H]1N[C@@H]12` [mitomycin C]: the “concentration optimal to growth arrest” value in assay [1] is 2 µg/mL. Besides, in assay [2], the “efficacy of concentrations below 1 μg/ml” value was “not efficacious”. Also, the “concentration at which cells were growth arrested” value in assay [2] (MMC treatment for 5 h) stood at 1 µg/mL. Further, the “concentration sufficient to growth arrest” value in assay [3] and in assay [4] was 8 µg/mL in each case.

For the origin of these results see US9173906B2, “Methods and compositions for tissue regeneration” (SMITH & NEPHEW, INC., priority 2002, dated 2015).
